Results reported in patent US11584752B2, “Method for controlled release using mechanical force” (California Institute of Technology, priority 2020, dated 2023).
“Also recorded” adds a separate entry of the source. Values belong to the compound of their own block, whether it stands above or below them.

Tests used:
[1] = Thermal stability of Diels-Alder adducts in toluene-d8 (retro-Diels-Alder conversion by 1H NMR); format: physicochemical
From the text: For example, FIGS. 7A and 7B illustrate that addition of the 3-phenoxy group to the furan moiety leads to a pronounced increase in the thermal stability of the Diels-Alder adduct of many embodiments. Not to be bound by any theory, this effect has been observed previously for cycloadducts derived from 3-alkoxy-furans, and it has been ascribed to a reduction in the energetic penalty for loss of furan aromaticity (as explained, for example in: Boutelle, R. C.; Northrop, B. H. Substituent Effects on the Reversibility of Furan-Maleimide Cycloadditions. J. Org. Chem. 2011, 76, 7994-8002; and Foster, R. W.; et al. Irreversible endo-Selective Diels-Alder Reactions of Substituted Alkoxyfurans: A General Synthesis of endo-Cantharimides. Chemistry 2015, 21, 6107-6114, the disclosures of which are incorporated herein by reference). Accordingly, FIG. 7A illustrates that, […] after 5 h, while the same conditions lead to approximately 46% reversion of the analogous Diels-Alder adduct (±)-216 without the 3-phenoxy substituent. […] Accordingly, in many embodiments, 3-phenoxy, or any similar aryloxy substituent at 3-position of the furan moiety enhances the thermal stability of such mechanophore platforms without any detriment to their mechanochemical activity.
In comparison, as described herein, heating the Diels-Alder adduct comprising a 3-OPh substituted furan moiety at 70° C. under the same conditions results in <2% retro-Diels-Alder conversion, while for the Diels-Alder adduct comprising neither substituent the conversion ˜46% under the same heating conditions.

[2] = Decomposition of model 2-furylcarbinol derivatives in solution at room temperature, followed by NMR and photoluminescence spectroscopy
From the text: The generation of hydroxycoumarin 2 in the room temperature solution of furfuryl carbonate 1 in MeCN:MeOH (3:1) was also monitored over time using fluorescence spectroscopy (FIG. 3C).
Furthermore, FIG. 8C illustrates the kinetics of the decomposition of furfuryl carbamates comprising α-methyl, 3-phenoxy, and 5-position substituents according to many embodiments, such as exemplified by 21, and compares them to the furfuryl carbamates without the 3-phenoxy substitution, such as exemplified by furfuryl carbamate 22. More specifically, FIG. 8C provides data from experimental studies, wherein the decompositions of 21 and 22 to generate aminocoumarin 23 were monitored as a function of time using NMR and PL spectroscopy.

[3] = toluene-d8, room temperature, after 132 days

SMILES: CC(O)C12OC(COC(=O)C(C)(C)Br)(C=C1Oc1ccccc1)C1C(=O)N(CCOC(=O)C(C)(C)Br)C(=O)C12 (racemic) [(±)-29, (2-(2-((2-bromo-2-methylpropanoyl)oxy)ethyl)-7-(1-hydroxyethyl)-1,3-dioxo-6-phenoxy-1,2,3,3a,7,7a-hexahydro-4H-4,7-epoxyisoindol-4-yl)methyl 2-bromo-2-methylpropanoate]
retro-Diels-Alder conversion ([1]; toluene-d8, 70° C., after 5 h): < 2%
retro-Diels-Alder conversion ([1]; toluene-d8, 70° C., after 21 h): < 7%
thermal stability ([1]; toluene-d8, room temperature): stable indefinitely
retro-Diels-Alder conversion [1, 3]: no reaction is observed

SMILES: CC(C)(Br)C(=O)OCCc1ccc(OC23C=CC(CO)(O2)C2C(=O)N(CCOC(=O)C(C)(C)Br)C(=O)C23)cc1 (racemic) [(±)-33, 4-((2-(2-((2-bromo-2-methylpropanoyl)oxy)ethyl)-7-(hydroxymethyl)-1,3-dioxo-1,2,3,3a,7,7a-hexahydro-4H-4,7-epoxyisoindol-4-yl)oxy)phenethyl 2-bromo-2-methylpropanoate]
retro-Diels-Alder conversion ([1]; toluene-d8 (7.7 mM), room temperature, nearly two months): negligible; also recorded: no detectable products
retro-Diels-Alder conversion ([1]; toluene-d8, 70° C., after 21 h): ~35%

SMILES: CC(O)[C@@]12C=C[C@@](COC(=O)C(C)(C)Br)(O1)[C@@H]1C(=O)N(CCOC(=O)C(C)(C)Br)C(=O)[C@@H]12 (mixture of isomers) [(±)-216]
retro-Diels-Alder conversion ([1]; toluene-d8, 70° C., after 5 h): approximately 46%
retro-Diels-Alder conversion ([1]; toluene-d8, 70° C., after 21 h): nearly quantitative
thermal stability ([1]; toluene-d8, room temperature): slow, but detectable, reversion
retro-Diels-Alder conversion [1, 3]: approximately 23%

The remaining lines, values ahead:

stability in solvent ([2]; DCM, chloroform, and hexanes): relatively stable
half-life ([2]; acetonitrile-d3/methanol solution, reaction half-life t1/2 of decomposition, 3:1 (v/v) acetonitrile-d3/methanol, room temperature, from NMR measurements): 1.32 h
stability in solvent ([2]; acidic and protic solvents): decomposes quickly
stability in solvent ([2]; chloroform and acetonitrile): relatively stable
half-life ([2]; water/acetonitrile-d3 solution, half-life of decomposition, water/acetonitrile mixture (water 25% by volume in acetonitrile-d3), room temperature, NMR): ~0.133 h
SMILES: Cc1cc(=O)oc2cc(OC(=O)OC(C)c3ccc(COC(=O)C(C)(C)Br)o3)ccc12 (centres unmarked) [Compound 1, (5-(1-((((4-methyl-2-oxo-2H-chromen-7-yl)oxy)carbonyl)oxy)ethyl)furan-2-yl)methyl 2-bromo-2-methylpropanoate]

time to full conversion to products ([2]; 3:1 MeCN/MeOH, room temperature): approximately 5 h
half-life at 19 μM ([2]; MeCN-d3/MeOH solution, half-life for decomposition t1/2, 3:1 MeCN-d3/MeOH, room temperature, NMR, first-order fit): 0.567 h
SMILES: Cc1cc(=O)oc2cc(NC(=O)OC(C)c3oc(COC(=O)C(C)(C)C)cc3Oc3ccccc3)ccc12 (centres unmarked) [Compound 21, (5-(1-(((4-methyl-2-oxo-2H-chromen-7-yl)carbamoyl)oxy)ethyl)-4-phenoxyfuran-2-yl)methyl pivalate]

conversion ([2]; 19.6 mM in MeCN-d3:MeOH (3:1), room temperature, after 134 days, 1H NMR): approximately 40%
decomposition reactivity ([2]; 3:1 MeCN/MeOH, room temperature, same conditions as 21): completely unreactive
SMILES: Cc1cc(=O)oc2cc(NC(=O)OC(C)c3ccc(COC(=O)C(C)(C)C)o3)ccc12 (centres unmarked) [Compound 22, (5-(1-(((4-methyl-2-oxo-2H-chromen-7-yl)carbamoyl)oxy)ethyl)furan-2-yl)methyl pivalate]

half-life at 21 mM ([2]; acetonitrile-d3/methanol solution, half-life for consumption t1/2, 3:1 acetonitrile-d3/methanol, room temperature, NMR, 21 mM): 9.3 h
yield of aminocoumarin released ([2]; acetonitrile/methanol (3:1 v/v), room temperature): nearly quantitative
half-life ([2]; acetonitrile/methanol solution, half-life of consumption and aminocoumarin generation, acetonitrile/methanol (3:1 v/v), room temperature, 1H NMR and PL): ~10 h
SMILES: Cc1cc(=O)oc2cc(NC(=O)OCc3ccc(Oc4ccc(CCOC(=O)C(C)(C)Br)cc4)o3)ccc12 [Compound 35, 4-((5-((((4-methyl-2-oxo-2H-chromen-7-yl)carbamoyl)oxy)methyl)furan-2-yl)oxy)phenethyl 2-bromo-2-methylpropanoate]

estimated half-lives for decomposition ([2]; room temperature): several weeks
SMILES: Cc1cc(=O)oc2cc(OC(=O)OCc3ccc(COC(=O)C(C)(C)Br)o3)ccc12 [Compound S2, (5-(((((4-methyl-2-oxo-2H-chromen-7-yl)oxy)carbonyl)oxy)methyl)furan-2-yl)methyl 2-bromo-2-methylpropanoate]
